Measured values: the CheMixHub viscosity set
± gives the uncertainty stated by the source.

Assay: xn = mol fraction of the nth substance listed

CC(C)(C)N + O
Conditions | viscosity [mPa·s]
298 K, 101 kPa, x1 = 0.001 | 0.993 ± 0.013
298 K, 101 kPa, x1 = 0.01 | 1.068 ± 0.013
298 K, 101 kPa, x1 = 0.02 | 1.269 ± 0.014
298 K, 101 kPa, x1 = 0.03 | 1.527 ± 0.016
298 K, 101 kPa, x1 = 0.04 | 1.698 ± 0.017
298 K, 101 kPa, x1 = 0.05 | 1.89 ± 0.018
298 K, 101 kPa, x1 = 0.06 | 2.059 ± 0.019
298 K, 101 kPa, x1 = 0.08 | 2.363 ± 0.022
298 K, 101 kPa, x1 = 0.1 | 2.604 ± 0.023
298 K, 101 kPa, x1 = 0.15 | 2.992 ± 0.026
298 K, 101 kPa, x1 = 0.2 | 3.112 ± 0.027
298 K, 101 kPa, x1 = 0.25 | 3.057 ± 0.027
298 K, 101 kPa, x1 = 0.3 | 2.832 ± 0.025
298 K, 101 kPa, x1 = 0.4 | 2.211 ± 0.021
298 K, 101 kPa, x1 = 0.5 | 1.642 ± 0.017
298 K, 101 kPa, x1 = 0.6 | 1.195 ± 0.014
298 K, 101 kPa, x1 = 0.7 | 0.881 ± 0.012
298 K, 101 kPa, x1 = 0.8 | 0.677 ± 0.011
298 K, 101 kPa, x1 = 0.85 | 0.594 ± 0.011
298 K, 101 kPa, x1 = 0.9 | 0.534 ± 0.011
298 K, 101 kPa, x1 = 0.92 | 0.523 ± 0.011
298 K, 101 kPa, x1 = 0.95 | 0.48 ± 0.011
298 K, 101 kPa, x1 = 0.97 | 0.462 ± 0.011
298 K, 101 kPa, x1 = 0.98 | 0.456 ± 0.011
298 K, 101 kPa, x2 = 0.01 | 0.445 ± 0.011
298.15 K, 101.33 kPa, x1 = 0.1001 | 2.654 ± 0.016
298.15 K, 101.33 kPa, x1 = 0.2002 | 3.163 ± 0.019
298.15 K, 101.33 kPa, x1 = 0.2998 | 2.906 ± 0.019
298.15 K, 101.33 kPa, x1 = 0.3996 | 2.294 ± 0.017
298.15 K, 101.33 kPa, x1 = 0.5 | 1.69 ± 0.014
298.15 K, 101.33 kPa, x1 = 0.5999 | 1.229 ± 0.011
298.15 K, 101.33 kPa, x1 = 0.6984 | 0.9094 ± 0.0088
298.15 K, 101.33 kPa, x1 = 0.7998 | 0.6936 ± 0.0073
298.15 K, 101.33 kPa, x1 = 0.9 | 0.5459 ± 0.0063
303 K, 101 kPa, x1 = 0.001 | 0.81 ± 0.012
303 K, 101 kPa, x1 = 0.01 | 0.947 ± 0.013
303 K, 101 kPa, x1 = 0.02 | 1.116 ± 0.013
303 K, 101 kPa, x1 = 0.03 | 1.29 ± 0.014
303 K, 101 kPa, x1 = 0.04 | 1.455 ± 0.015
303 K, 101 kPa, x1 = 0.05 | 1.606 ± 0.016
303 K, 101 kPa, x1 = 0.06 | 1.745 ± 0.017
303 K, 101 kPa, x1 = 0.08 | 1.986 ± 0.019
303 K, 101 kPa, x1 = 0.1 | 2.189 ± 0.02
303 K, 101 kPa, x1 = 0.15 | 2.516 ± 0.022
303 K, 101 kPa, x1 = 0.2 | 2.622 ± 0.023
303 K, 101 kPa, x1 = 0.25 | 2.57 ± 0.023
303 K, 101 kPa, x1 = 0.3 | 2.392 ± 0.021
303 K, 101 kPa, x1 = 0.4 | 1.901 ± 0.018
303 K, 101 kPa, x1 = 0.5 | 1.419 ± 0.015
303 K, 101 kPa, x1 = 0.6 | 1.06 ± 0.013
303 K, 101 kPa, x1 = 0.7 | 0.787 ± 0.012
303 K, 101 kPa, x1 = 0.8 | 0.609 ± 0.011
303 K, 101 kPa, x1 = 0.85 | 0.543 ± 0.011
303 K, 101 kPa, x1 = 0.9 | 0.49 ± 0.011
303 K, 101 kPa, x1 = 0.92 | 0.47 ± 0.011
303 K, 101 kPa, x1 = 0.95 | 0.442 ± 0.011
303 K, 101 kPa, x1 = 0.97 | 0.426 ± 0.011
303 K, 101 kPa, x1 = 0.98 | 0.419 ± 0.011
303 K, 101 kPa, x2 = 0.01 | 0.417 ± 0.011
303.15 K, 101.33 kPa, x1 = 0.1001 | 2.222 ± 0.014
303.15 K, 101.33 kPa, x1 = 0.2002 | 2.645 ± 0.017
303.15 K, 101.33 kPa, x1 = 0.2998 | 2.422 ± 0.017
303.15 K, 101.33 kPa, x1 = 0.3996 | 1.935 ± 0.014
303.15 K, 101.33 kPa, x1 = 0.5 | 1.453 ± 0.012
303.15 K, 101.33 kPa, x1 = 0.5999 | 1.076 ± 0.0096
303.15 K, 101.33 kPa, x1 = 0.6984 | 0.8077 ± 0.0079
303.15 K, 101.33 kPa, x1 = 0.7998 | 0.6226 ± 0.0066
303.15 K, 101.33 kPa, x1 = 0.9 | 0.5017 ± 0.0058
308 K, 101 kPa, x1 = 0.001 | 0.73 ± 0.012
308 K, 101 kPa, x1 = 0.01 | 0.846 ± 0.012
308 K, 101 kPa, x1 = 0.02 | 0.99 ± 0.013
308 K, 101 kPa, x1 = 0.03 | 1.132 ± 0.014
308 K, 101 kPa, x1 = 0.04 | 1.263 ± 0.014
308 K, 101 kPa, x1 = 0.05 | 1.394 ± 0.015
308 K, 101 kPa, x1 = 0.06 | 1.571 ± 0.016
308 K, 101 kPa, x1 = 0.08 | 1.718 ± 0.017
308 K, 101 kPa, x1 = 0.1 | 1.871 ± 0.018
308 K, 101 kPa, x1 = 0.15 | 2.168 ± 0.021
308 K, 101 kPa, x1 = 0.2 | 2.211 ± 0.021
308 K, 101 kPa, x1 = 0.25 | 2.16 ± 0.02
308 K, 101 kPa, x1 = 0.3 | 2.061 ± 0.02
308 K, 101 kPa, x1 = 0.4 | 1.643 ± 0.017
308 K, 101 kPa, x1 = 0.5 | 1.24 ± 0.014
308 K, 101 kPa, x1 = 0.7 | 0.712 ± 0.011
308 K, 101 kPa, x1 = 0.8 | 0.566 ± 0.011
308 K, 101 kPa, x1 = 0.85 | 0.499 ± 0.011
308 K, 101 kPa, x1 = 0.9 | 0.451 ± 0.011
308 K, 101 kPa, x1 = 0.92 | 0.433 ± 0.011
308 K, 101 kPa, x1 = 0.95 | 0.41 ± 0.011
308 K, 101 kPa, x1 = 0.97 | 0.396 ± 0.011
308 K, 101 kPa, x1 = 0.98 | 0.389 ± 0.011
308 K, 101 kPa, x2 = 0.01 | 0.383 ± 0.011
308.15 K, 101.33 kPa, x1 = 0.1001 | 1.888 ± 0.012
308.15 K, 101.33 kPa, x1 = 0.2002 | 2.229 ± 0.014
308.15 K, 101.33 kPa, x1 = 0.2998 | 2.058 ± 0.014
308.15 K, 101.33 kPa, x1 = 0.3996 | 1.655 ± 0.012
308.15 K, 101.33 kPa, x1 = 0.5 | 1.258 ± 0.01
308.15 K, 101.33 kPa, x1 = 0.5999 | 0.9485 ± 0.0085
308.15 K, 101.33 kPa, x1 = 0.6984 | 0.726 ± 0.0071
308.15 K, 101.33 kPa, x1 = 0.7998 | 0.5736 ± 0.0062
